Source: PubChem BioAssay AID248 (DTP/NCI, 2004)
Toxic doses and inconclusive results are not listed. No stated cut-off is given here; in the data, active means T/C of 150% or more; inactive means T/C below 125%.

System: L1210 leukemia ip in BDF1 mice, survival T/C
Experiment: NCI In Vivo Anticancer Drug Screen. Data for tumor model L1210 Leukemia (intraperitoneal) in B6D2F1 (BDF1) mice
Conditions: endpoint: mean survival time, higher = longer survival
In short: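 Read-out is survival time, reported as the treated-group measurement over the vehicle-control measurement.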

[1] = dose: 100.0 mg/kg/injection, schedule: Q01DX009 (ip), vehicle: saline with Tween-80
[2] = dose: 200.0 mg/kg/injection, schedule: Q01DX009 (ip), vehicle: saline with Tween-80
[3] = dose: 50.0 mg/kg/injection, schedule: Q01DX009 (ip), vehicle: saline with Tween-80
[4] = dose: 100.0 mg/kg/injection, schedule: Q01DX009 (ip), vehicle: Klucel (hydroxypropylcellulose) (HPC)
[5] = dose: 200.0 mg/kg/injection, schedule: Q01DX009 (ip), vehicle: Klucel (hydroxypropylcellulose) (HPC)
[6] = dose: 400.0 mg/kg/injection, schedule: Q01DX009 (ip), vehicle: Klucel (hydroxypropylcellulose) (HPC)
[7] = dose: 50.0 mg/kg/injection, schedule: Q01DX009 (ip), vehicle: Klucel (hydroxypropylcellulose) (HPC)

Measured: T/C

CC(=O)C1(C(C)=O)C(c2cccc([N+](=O)[O-])c2)C1(c1ccccc1)[N+](=O)[O-] (configuration not stated)
inactive: dose: 100.0 mg/kg/injection, schedule: Q01DX001 (ip), vehicle: other 95 % of control | [1] 94 % of control | dose: 100.0 mg/kg/injection, schedule: Q04DX003 (ip), vehicle: other 92 % of control | dose: 200.0 mg/kg/injection, schedule: Q01DX001 (ip), vehicle: other 93 % of control | [2] 102 % of control | dose: 200.0 mg/kg/injection, schedule: Q04DX003 (ip), vehicle: other 92 % of control | dose: 400.0 mg/kg/injection, schedule: Q01DX001 (ip), vehicle: other 95 % of control | dose: 400.0 mg/kg/injection, schedule: Q01DX009 (ip), vehicle: saline with Tween-80 96 % of control | dose: 400.0 mg/kg/injection, schedule: Q04DX003 (ip), vehicle: other 97 % of control

CC(C)(CO)COS(=O)(=O)c1ccc(Br)cc1
inactive: [3] 89 % of control

CC1=CC(=O)OC1=O (tested in a mixture with another compound)
inactive: dose: 37.5 mg/kg/injection, schedule: Q01DX009 (ip), vehicle: carboxymethylcellulose (CMC) 117 % of control | dose: 75.0 mg/kg/injection, schedule: Q01DX001 (ip), vehicle: carboxymethylcellulose (CMC) 109 % of control | dose: 150.0 mg/kg/injection, schedule: Q01DX001 (ip), vehicle: carboxymethylcellulose (CMC) 118 % of control

N=C([Se])c1c(N)ncn1C1OC(CO)C(O)C1O (configuration not stated)
inactive: dose: 12.5 mg/kg/injection, schedule: Q01DX005 (ip), vehicle: saline 98 % of control | dose: 25.0 mg/kg/injection, schedule: Q01DX005 (ip), vehicle: saline 94 % of control | dose: 50.0 mg/kg/injection, schedule: Q01DX005 (ip), vehicle: saline 96 % of control

COC(=O)C[CH2][Ge]([CH3])([CH3])[CH3]
inactive: dose: 6.25 mg/kg/injection, schedule: Q04DX002 (ip), vehicle: saline with Tween-80 89 % of control | dose: 12.5 mg/kg/injection, schedule: Q04DX002 (ip), vehicle: saline with Tween-80 96 % of control | dose: 25.0 mg/kg/injection, schedule: Q04DX002 (ip), vehicle: saline with Tween-80 96 % of control | dose: 100.0 mg/kg/injection, schedule: Q04DX002 (ip), vehicle: saline with Tween-80 95 % of control | dose: 200.0 mg/kg/injection, schedule: Q04DX002 (ip), vehicle: saline with Tween-80 95 % of control | dose: 400.0 mg/kg/injection, schedule: Q04DX002 (ip), vehicle: saline with Tween-80 93 % of control

COc1cccc2c1CCC1=C2CC=C2CC3(CCC21C)OCCO3 (configuration not stated)
inactive: dose: 100.0 mg/kg/injection, schedule: Q01DX009 (sc), vehicle: steriod suspending solution 91 % of control | dose: 200.0 mg/kg/injection, schedule: Q01DX009 (sc), vehicle: steriod suspending solution 101 % of control | dose: 400.0 mg/kg/injection, schedule: Q01DX009 (sc), vehicle: steriod suspending solution 106 % of control

O=C(CCCC(=O)OCC(F)(F)C(F)(F)C(F)(F)C(F)F)OCC(F)(F)C(F)(F)C(F)(F)C(F)F
inactive: dose: 50.0 mg/kg/injection, schedule: Q01DX001 (ip), vehicle: carboxymethylcellulose (CMC) 102 % of control | dose: 100.0 mg/kg/injection, schedule: Q01DX001 (ip), vehicle: carboxymethylcellulose (CMC) 100 % of control | dose: 200.0 mg/kg/injection, schedule: Q01DX001 (ip), vehicle: carboxymethylcellulose (CMC) 100 % of control | dose: 400.0 mg/kg/injection, schedule: Q01DX001 (ip), vehicle: carboxymethylcellulose (CMC) 100 % of control

C=CCc1ccc(C)c(C)c1O
inactive: dose: 100.0 mg/kg/injection, schedule: Q01DX009 (sc), vehicle: olive oil, sesame oil, peanut oil 101 % of control | dose: 100.0 mg/kg/injection, schedule: Q04DX003 (sc), vehicle: olive oil, sesame oil, peanut oil 99 % of control | dose: 200.0 mg/kg/injection, schedule: Q01DX009 (sc), vehicle: olive oil, sesame oil, peanut oil 101 % of control | dose: 200.0 mg/kg/injection, schedule: Q04DX003 (sc), vehicle: olive oil, sesame oil, peanut oil 97 % of control | dose: 400.0 mg/kg/injection, schedule: Q01DX009 (sc), vehicle: olive oil, sesame oil, peanut oil 101 % of control | dose: 400.0 mg/kg/injection, schedule: Q04DX003 (sc), vehicle: olive oil, sesame oil, peanut oil 91 % of control

CCC/C=N/Nc1ccnc(SCc2ccccc2)n1
inactive: dose: 75.0 mg/kg/injection, schedule: Q01DX009 (ip), vehicle: DMSO 88 % of control

CCC(C)C1CC1(Br)Br (configuration not stated)
inactive: dose: 100.0 mg/kg/injection, schedule: Q04DX003 (ip), vehicle: saline with Tween-80 100 % of control | dose: 200.0 mg/kg/injection, schedule: Q04DX003 (ip), vehicle: saline with Tween-80 100 % of control | dose: 400.0 mg/kg/injection, schedule: Q04DX003 (ip), vehicle: saline with Tween-80 98 % of control

O=C(Nc1ccc(C2=NCCN2)cc1)c1ccc2cc(C(=O)Nc3ccc(C4=NCCN4)cc3)ccc2c1
inactive: dose: 15.0 mg/kg/injection, schedule: Q01DX Z (ip), vehicle: carboxymethylcellulose (CMC) 123 % of control | dose: 120.0 mg/kg/injection, schedule: Q01DX Z (ip), vehicle: carboxymethylcellulose (CMC) 120 % of control

CCNC(=S)Nc1ccccc1
inactive: dose: 37.5 mg/kg/injection, schedule: Q01DX009 (ip), vehicle: Klucel (hydroxypropylcellulose) (HPC) 102 % of control | dose: 75.0 mg/kg/injection, schedule: Q01DX009 (ip), vehicle: Klucel (hydroxypropylcellulose) (HPC) 104 % of control | dose: 150.0 mg/kg/injection, schedule: Q01DX009 (ip), vehicle: Klucel (hydroxypropylcellulose) (HPC) 115 % of control

NC(CCC(=O)NC1(C(=O)O)C2CC3CC(C2)CC1C3)C(=O)O (configuration not stated)
inactive: [4] 87 % of control | [5] 103 % of control | [6] 89 % of control

O=c1c(Cl)c(-c2ccccc2)nc2ccccn12
inactive: dose: 12.5 mg/kg/injection, schedule: Q01DX001 (ip), vehicle: saline with Tween-80 100 % of control | dose: 25.0 mg/kg/injection, schedule: Q01DX001 (ip), vehicle: saline with Tween-80 110 % of control | dose: 50.0 mg/kg/injection, schedule: Q01DX001 (ip), vehicle: saline with Tween-80 93 % of control

CCOc1ccc2nc(/C=C/c3ccc(N(C)C)cc3)ccc2c1
inactive: [7] 94 % of control | [4] 94 % of control | [5] 92 % of control | [6] 100 % of control

C(=C\c1nc2ccccc2nc1/C=C/c1ccc2c(c1)OCO2)/c1ccc2c(c1)OCO2
inactive: dose: 12.5 mg/kg/injection, schedule: Q01DX009 (ip), vehicle: Klucel (hydroxypropylcellulose) (HPC) 95 % of control | dose: 25.0 mg/kg/injection, schedule: Q01DX009 (ip), vehicle: Klucel (hydroxypropylcellulose) (HPC) 92 % of control | [7] 100 % of control | dose: 100.0 mg/kg/injection, schedule: Q04DX003 (ip), vehicle: Klucel (hydroxypropylcellulose) (HPC) 102 % of control | dose: 200.0 mg/kg/injection, schedule: Q04DX003 (ip), vehicle: Klucel (hydroxypropylcellulose) (HPC) 96 % of control | [6] 86 % of control | dose: 400.0 mg/kg/injection, schedule: Q04DX003 (ip), vehicle: Klucel (hydroxypropylcellulose) (HPC) 95 % of control

ClC1=CCCCC1
inactive: dose: 25.0 mg/kg/injection, schedule: Q01DX009 (ip), vehicle: acetone 95 % of control | dose: 50.0 mg/kg/injection, schedule: Q01DX009 (ip), vehicle: acetone 101 % of control | dose: 100.0 mg/kg/injection, schedule: Q01DX009 (ip), vehicle: acetone 100 % of control

O=S(=O)(O)c1cccnc1
inactive: dose: 19.63 mg/kg/injection, schedule: Q01DX Z (ip), vehicle: carboxymethylcellulose (CMC) 102 % of control | dose: 39.25 mg/kg/injection, schedule: Q01DX Z (ip), vehicle: carboxymethylcellulose (CMC) 93 % of control | dose: 78.5 mg/kg/injection, schedule: Q01DX Z (ip), vehicle: carboxymethylcellulose (CMC) 92 % of control | dose: 100.0 mg/kg/injection, schedule: Q01DX001 (ip), vehicle: saline 102 % of control | dose: 157.0 mg/kg/injection, schedule: Q01DX Z (ip), vehicle: carboxymethylcellulose (CMC) 91 % of control | dose: 200.0 mg/kg/injection, schedule: Q01DX001 (ip), vehicle: saline 98 % of control | dose: 400.0 mg/kg/injection, schedule: Q01DX001 (ip), vehicle: saline 98 % of control

Cc1ccc(C(CC(=O)NN)NN)c(O)c1 (configuration not stated)
inactive: [3] 104 % of control | [1] 101 % of control | [2] 108 % of control

CCOC(=O)CCC1CCCC1CC(=O)OCC (configuration not stated)
inactive: dose: 100.0 mg/kg/injection, schedule: Q01DX001 (ip), vehicle: acetone 97 % of control | dose: 200.0 mg/kg/injection, schedule: Q01DX001 (ip), vehicle: acetone 101 % of control | dose: 400.0 mg/kg/injection, schedule: Q01DX001 (ip), vehicle: acetone 86 % of control
